These results are taken from patent USRE49351E1, “Cytoprotective agent” (Biogen MA Inc., priority 2009, dated 2023).

This assay has as its system Mongolian gerbil cerebral infarction model. Nature of the assay: Mongolian gerbil cerebral infarction model (acetic acid-induced thrombus): infarction area percentage and neurological symptom. Type of assay: in vivo. As to conditions: for Infarction area: evaluated 24 h; for Infarction area / Neurological scores: mean ± SE, n=6; for Neurological scores: score 0-4 at 24 h; for improvement rate of the infarction area percentage: 10 mg/kg, administration initiated 1 hour after the initiation of ischemia. The text has this:
Anesthesia was induced to a male Mongolian gerbil (body weight 55 to 65 g) by inhalation of 5% isoflurane (trade name Escain, Mylan Inc.), and maintained with 1 to 1.5% isoflurane. The Mongolian gerbil was fixed in a dorsal position, and the neck was dehaired and then disinfected with 70% ethanol. After median incision of the neck, the right common carotid artery was detached, clamped to block the blood flow temporarily, and coated with 100% acetic acid by 30 reciprocating motions so as to produce a thrombus. The blood vessel was reopened after 10 min of the blockage of the blood flow to transfer the thrombus by the blood stream into the brain to make it ischemic and generate cerebral infarction. The operating field was closed with an instant adhesive (trade name Aron Alpha (Krazy Glue), Toagosei Co., Ltd.) and disinfected with 70% ethanol.
Twenty four hours after the initiation of the operation neurological symptoms were observed as an indicator for cerebral infarction. Many types of neurological symptoms specific to cerebral infarction, such as extension of a hindlimb or circling to one direction, have been reported. Applying a modified evaluation method of the method proposed by Longa, et al. (Stroke 1989; 20:84-91) postoperative neurological symptoms were evaluated as per: no deficit, 0; extension of limb, 1; circling to one direction, 2; incline posture, 3; diminished motion, 4.
With respect to statistical analysis, for multiple comparisons was conducted firstly one-way analysis of variance (ANOVA) and then a Bonferroni test was conducted, if significant difference is detected. Significant difference was positively recognized with significance level 5% (P<0.05). All the results are expressed in mean±standard error.
After the evaluation of neurological symptoms according to the above method, the animal was decapitated under anesthesia with isoflurane. The cranial bone was exfoliated of skin and opened, and, after scission of optic nerve, the brain was extirpated and dipped in a physiological saline solution to remove attached body hairs, etc. The extirpated brain was placed in a brain matrix (RBM-1000C, ASI Instruments) to carry out coronal slicing from the frontal pole at thickness of 2 mm. The slices were dipped in 2% 2,3,5-triphenyl-2H-tetrazolium chloride (TTC), and incubated for staining at 37° C. for 30 min in a CO2 incubator. The colorless TTC is reduced by hydrogen liberated by the action of dehydrogenase contained in a normal cell converting to dark red colored water-insoluble 1,3,5-triphenylformazan (TPF), so that the normal cell is stained. Unstained area (white area) was defined as an infarction area. Meanwhile, the corpus callosum, which is commissural fibers connecting the right and left cerebral hemispheres, is not stained and is white, and therefore image processing for the analyses as described below was conducted excluding the corpus callosum.
After staining images of the brain slices were taken by a digital camera under a stereoscopic microscope. For analysis of the infarction area percentage, an image analysis software Image J (Version 1.4) was used. Full, excluding the corpus callosum, images of the taken 2nd, 3rd, and 4th brain slice images were converted to grayscale. From the grayscale images a histogram for the whole brain as the object scope was obtained showing in the ordinate the frequency of occurrence (frequency) at certain brightness, and showing in the abscissa the brightness (0 to 255). The sum from 0 to 255 was defined as the area size of the whole brain, and the sum from 160 to 219 was defined as the area size of the infarction area. Then the infarction area percentage was determined according to the following formula using the total area size of the infarction areas and the total area size of the whole brain, of the 3 brain slice images. Statistical analysis was conducted as above. […]

The mark [1] stands for this setting: 0.01 mg/kg i.v., administration initiated 1 hr after ischemia.
The mark [2] stands for this setting: 0.1 mg/kg i.v., administration initiated 1 hr after ischemia.
[3] abbreviates: 10 mg/kg i.v., administration initiated 1 hr after ischemia.
Setting [4] is: 10 mg/kg i.v., administration initiated 3 hr after ischemia.
[5] abbreviates: 10 mg/kg i.v., administration initiated 6 hr after ischemia.
The mark [6] stands for this setting: 1 mg/kg i.v., administration initiated 1 hr after ischemia.

Take alteplase [reference compound]: the “improvement rate of the infarction area percentage” value is recorded as 78.9%. Under setting [1], this compound had an Infarction area of 11.2 ± 2.74% and a Neurological scores of 2.67 ± 0.56. Also, under setting [2], the Infarction area was 9.67 ± 2.35% and the Neurological scores is reported as 2.00 ± 0.77. Under setting [3], this compound showed an Infarction area of 5.43 ± 1.33 % and a Neurological scores of 0.17 ± 0.17. Under setting [4], this compound returned an Infarction area of 11.0 ± 3.61% and a Neurological scores of 1.33 ± 0.67. Also, under setting [5], the Infarction area is given as 13.8 ± 2.40% and the Neurological scores was 3.17 ± 0.48.

Regarding `CC(C)=CCC/C(C)=C/CC[C@@]1(C)Oc2c(c(O)cc3c2CN(CCC[C@@H](C(=O)O)N2Cc4c(cc(O)c5c4O[C@](C)(CC/C=C(\C)CCC=C(C)C)[C@@H](O)C5)C2=O)C3=O)C[C@@H]1O` [SMTP-7], the “improvement rate of the infarction area percentage” value is recorded as 65.7%. Under setting [6], this compound showed an Infarction area of 11.4 ± 2.69% and a Neurological scores of 2.67 ± 0.33. Under setting [3], this compound yielded an Infarction area of 7.01 ± 0.56 % and a Neurological scores of 1.50 ± 0.67. For the same compound, under setting [4], the Infarction area is reported as 5.90 ± 0.36 % and the Neurological scores came to 1.67 ± 0.61. Under setting [5], this compound registered an Infarction area of 7.93 ± 1.64 % and a Neurological scores of 2.00 ± 0.45.
